From US8097759B2, “Inflammatory cytokine release inhibitor” (Institute of Medicinal Molecular Design, Inc., priority 2000, dated 2012)

System: NF-κB activation
Experiment: NF-κB activation reporter assay (pNFκB-Luc luciferase) under TNF-α stimulation
Format: cell-based, human
Settings: HepG2 or HeLa cells, TNF-α 40 ng/ml, 4 hours; for inhibition at 1 µg/mL / inhibition at 10 µg/mL: Homo sapiens, read-out: The rate of inhibitory activity against NF-κB activation (%)
Method: Using a transfection reagent (Effectene; QIAGEN), the human hepatoma cell strain HepG2 or the human hysterocarcinoma cell strain HeLa was transfected with the firefly luciferase gene (Luc) contained plasmid (pNF κB-Luc Reporter Plasmid; […]) which contained oligonucleotide having five tandem copies of NF-κB binding sequences ([…]) on a upstream region of Luc, according to the QUAGEN's protocol and it was incuvated for 6-24 hours. After addition of TNF-α (40 ng/ml) with or without the test compound, the cells were incuvated for 4 hours, and intracellular luciferase activity was measured with PicaGene LT (TOYO INK MFG Co., Ltd.) and chemical luminescence measurement device ([…]luor Plus; TECAN). The inhibition ratio was measured as a ratio to the value of the luciferase activity without the test compound.

[1] = Concentration of the agent: 1 μg/mL
[2] = Concentration of the agent: 10 μg/mL

Row | The rate of inhibitory activity against NF-κB activation (%) [1] [%] | The rate of inhibitory activity against NF-κB activation (%) [2] [%] | Compound | inhibition at 1 µg/mL [1] [%] | inhibition at 10 µg/mL [2] [%]
1 |  |  | O=C(Nc1cc(C(F)(F)F)cc(C(F)(F)F)c1)c1cc(C(F)(F)F)ccc1O [Compound 69] | 96.4 | 99.6
2 |  |  | O=C(Nc1ccccc1O)c1cc(C(F)(F)F)cc(C(F)(F)F)c1 [Compound 11, 3,5-Bis(trifluoromethyl)-N-(2-hydroxyphenyl)benzamide] | 28.4 | 44.1
3 |  |  | O=C(Nc1cc([N+](=O)[O-])cc([N+](=O)[O-])c1)c1cc(Br)ccc1O [Compound 158] | 91 | 95.6
4 |  |  | O=C(Nc1cc(Cl)cc(Cl)c1)c1cc(Cl)ccc1O [Compound 147] | 84.5 | 96.8
5 |  |  | O=C(CC(c1ccc(O)cc1)c1ccc(Cl)cc1)c1c(O)cccc1O (centres unmarked) [Compound 4, 3-(4-Chlorophenyl)-1-(2,6-dihydroxyphenyl)-3-(4-hydroxyphenyl)propan-1-one] | 42.9 | 94.1
6 |  |  | CCOC(=O)c1sc(NC(=O)c2cc(-n3cccc3)ccc2O)nc1-c1ccccc1 [Compound 222] | 74 | 90.1
7 |  |  | O=C(Nc1cc(Cl)cc(Cl)c1)c1cc(I)ccc1O [Compound 149] | 85.4 | 97.1
8 |  |  | Cc1sc(NC(=O)c2cc(Br)ccc2O)nc1-c1ccccc1 [Compound 188] | 83.6 | 94.4
9 |  |  | O=C(Nc1ccc(F)c(C(F)(F)F)c1)c1cc(Cl)ccc1O [Compound 108] | 94.7 | 97.6
10 |  |  | Cc1c(NC(=O)c2cc(Cl)ccc2O)cccc1C(F)(F)F [Compound 118] | 94.1 | 96.3
11 |  |  | O=C(Nc1cc(C(F)(F)F)ccc1N1CCCC1)c1cc(Br)ccc1O [Compound 126] | 95.8 | 97.8
12 |  |  | O=C(Nc1ccc([N+](=O)[O-])c(C(F)(F)F)c1)c1cc(Cl)ccc1O [Compound 115] | 89 | 94.3
13 | 7.1 | 78.6 | 5-Bromo-N-(3,5-dichloro)phenyl-2-hydroxybenzenesulfonamide [Compound 10] |  | 
14 |  |  | O=C(NC1Cc2ccc(C(=O)N3CCOCC3)cc2C1)c1cc(Br)ccc1O (centres unmarked) [Compound 3, 5-Bromo-2-hydroxy-N-[5-(morpholinocarbonyl)indan-2-yl]benzamide] | 54.2 | 68.4
15 |  |  | O=C(Nc1cc(C(F)(F)F)cc(C(F)(F)F)c1)c1ncccc1O [Compound 27, N-[3,5-Bis(trifluoromethyl)phenyl]-3-hydroxypyridine-2-carboxamide] | 68.5 | 47.3
16 |  |  | O=C(Nc1cc(C(F)(F)F)cc(C(F)(F)F)c1)c1cc(F)ccc1O [Compound 49] | 81.5 | 94.3
17 |  |  | O=C(Nc1cc(C(F)(F)F)cc(C(F)(F)F)c1)c1cc(-c2cccs2)ccc1O [Compound 72] | 79.5 | 97.8
18 |  |  | O=C(Nc1cccc(-c2ccccc2)c1)c1cc(Cl)ccc1O [Compound 165] | 88.2 | 95.1
19 |  |  | COc1ccc(C(F)(F)F)cc1NC(=O)c1cc(Br)ccc1O [Compound 123] | 76.6 | 93.4
20 |  |  | O=C(Nc1ccc(O)c(C(=O)Nc2cc(C(F)(F)F)cc(C(F)(F)F)c2)c1)c1ccccc1 [Compound 90] | 1 | 63.4
21 |  |  | O=C(Nc1cc(Cl)c(O)c(Cl)c1)c1cc(Br)ccc1O [Compound 156] | 7.3 | 74.9
22 |  |  | O=C(Nc1cc(Cl)c(Cl)c(Cl)c1)c1cc(Br)ccc1O [Compound 155] | 85.6 | 94.1
23 |  |  | CC(C)(C)c1nc(NC(=O)c2cc(Br)ccc2O)sc1C#N [Compound 184] | 20 | 93.8
24 |  |  | O=C(Nc1cc(C(F)(F)F)cc(C(F)(F)F)c1)c1cc(-c2ccsc2)ccc1O [Compound 73] | 81.7 | 92.9
25 |  |  | CCn1c2ccccc2c2cc(NC(=O)c3cc(Cl)ccc3O)ccc21 [Compound 47, N-(9-Ethylcarbazol-3-yl)-5-chloro-2-hydroxybenzamide] | 91.3 | 99.4
26 |  |  | O=C(Nc1nc(Cc2ccccc2)c(-c2ccccc2)s1)c1cc(Br)ccc1O [Compound 205] | 79.7 | 95

Row | The rate of inhibitory activity against NF-κB activation (%) [1] [%] | The rate of inhibitory activity against NF-κB activation (%) [2] [%] | Compound | inhibition at 1 µg/mL [1] [%] | inhibition at 10 µg/mL [2] [%]
27 |  |  | O=C(Nc1cc(C(F)(F)F)ccc1F)c1cc(Cl)ccc1O [Compound 112] | 93.1 | 95.9
28 |  |  | C[Si](C)(C)C#Cc1ccc(O)c(C(=O)Nc2cc(C(F)(F)F)cc(C(F)(F)F)c2)c1 [Compound 66] | 91.1 | 94.9
29 |  |  | O=C(Nc1cc(Cl)cc(Cl)c1)c1ccccc1O [Compound 145] | 92.9 | 95.5
30 |  |  | O=C(Nc1cc(C(F)(F)F)cc(C(F)(F)F)c1)c1cc(NC(=S)Nc2ccccc2)ccc1O [Compound 92] | 51.8 | 97.2
31 |  |  | O=C(Nc1cc(C(F)(F)F)cc(C(F)(F)F)c1)c1cc(N=Nc2ccc([N+](=O)[O-])cc2)ccc1O [Compound 93] | 96.2 | 98.7
32 | 26.1 | 90.3 | O=C(Nc1nnc(C(F)(F)F)s1)c1cc(Br)ccc1O [Compound 41] |  | 
33 |  |  | O=C(Nc1cc(Cl)ccc1O)c1cc(Cl)cc(Cl)c1 [Compound 12, N-(5-Chloro-2-hydroxyphenyl)-3,5-dichlorobenzamide] | 68.6 | 87.3
34 |  |  | CC(C)(C)c1cc(NC(=O)c2cc(Br)ccc2O)cc(C(C)(C)C)c1 [Compound 163] | 70.9 | 82
35 |  |  | COc1ccc(NC(=O)c2cc(Cl)ccc2O)cc1C(F)(F)F [Compound 121] | 85.5 | 96.5
36 |  |  | COc1ccc(OC)c(NC(=O)c2cc(Br)ccc2O)c1 [Compound 167] | 32.4 | 95.7
37 |  |  | O=C(Nc1ccccc1)Nc1ccc(O)c(C(=O)Nc2cc(C(F)(F)F)cc(C(F)(F)F)c2)c1 [Compound 91] | 20.5 | 88.4
38 |  |  | O=C(NCc1cc(C(F)(F)F)cc(C(F)(F)F)c1)c1cc(Br)ccc1O [Compound 1, N-{[3,5-bis(trifluoromethyl)phenyl]methyl}-5-bromo-2-hydroxybenzamide] | -33.6 | 54.4
39 |  |  | CCOC(=O)c1c[nH]c2c(NC(=O)c3ccccc3OC(C)=O)cccc12 [Compound 45, 7-[(2-Acetoxybenzoyl)amino]indole-3-carboxylic acid ethyl ester] | 61.7 | 91.3
40 |  |  | COc1cc(NC(=O)c2cc(Cl)ccc2O)cc2ccccc12 [Compound 33, 5-Chloro-2-hydroxy-N-(4-methoxynaphthalen-2-yl)benzamide] | 95.1 | 99.5
41 |  |  | O=C(Nc1cc(Cl)cc(Cl)c1)c1c(O)ccc2ccccc12 [Compound 18, N-(3,5-Dichlorophenyl)-2-hydroxy-1-naphthamide] | 85.3 | 90.2
42 |  |  | O=C(Nc1cccc(C(F)(F)F)c1)c1cc(Br)ccc1O [Compound 106] | 80.7 | 93.3
43 |  |  | O=C(Nc1ccc(Cl)c(C(F)(F)F)c1)c1cc(Br)ccc1O [Compound 109] | 83 | 88.8
44 | 3.9 | 81.9 | O=C(Nc1nnc(C(F)(F)F)s1)c1ccccc1O [Compound 40, 2-Hydroxy-N-5-[(trifluoromethyl)-1,3,4-thiadiazol-2-yl]benzamide] |  | 
45 |  |  | O=C(Nc1cc(C(F)(F)F)ccc1Cl)c1cc(Cl)ccc1O [Compound 113] | 94.8 | 97.1
46 |  |  | O=C(Nc1ccnc(Cl)c1)c1cc(Cl)ccc1O [Compound 42, 5-Chloro-N-(2-chloropyridin-4-yl)-2-hydroxybenzamide] | 14.3 | 92.3
47 |  |  | O=C(Nc1cc(C(F)(F)F)cc(C(F)(F)F)c1)c1ccccc1O [Compound 48] | 93.3 | 95.6
48 |  |  | O=C(Nc1ccc(Cl)cc1)c1cc2c(cc1O)[nH]c1ccccc12 [Compound 30, N-(4-Chlorophenyl)-2-hydroxy-9H-carbazole-3-carboxamide] | 76.5 | 98.1
49 |  |  | Cc1ccc(NC(=O)c2cc(Cl)ccc2O)cc1C(F)(F)F [Compound 119] | 88.1 | 91.7
50 |  |  | O=C(Nc1ccccc1)c1cc(Br)ccc1O [Compound 139] | -48.2 | 60.2
51 |  |  | Cc1nc(NC(=O)c2cc(Br)ccc2O)sc1C [Compound 187] | 4.6 | 67.2
52 |  |  | O=C(Nc1cccc2ccccc12)c1ccccc1O [Compound 31, 2-Hydroxy-N-(1-naphthyl)benzamide] | 13.3 | 93.2
